The values below come from paper PMC8839081 (Molecules, 2022).

SMILES strings stand for the structures. Several values for one entry are separate records, joined by “and”; a condition that tells them apart may be missing. Equal entries are not always repeated. Where two headings read alike, the source gives them in different places. Where only a bound is given, the exact number is not on record here.

For data set [1], the system named is C6 glioma cells. The data set can be described thus: WST-1 cell viability assay on C6 cells. The class given is cell-based, Rat. As to conditions: for IC50: Rattus norvegicus, 48 h exposure, read-out: IC50 of cell proliferation / cell viability (WST-1). As for the experimental part: (§1) Cell culture: Rat C6 glioma cells were purchased from the American Type Culture Collection (CC-107) and maintained in Dulbecco’s Modified Eagle Medium (Life Technologies, Carlsbad, CA, USA; 10569) with 5% (v/v) fetal bovine serum (FBS, Atlanta Biologicals) and 100 U mL−1 of penicillin and streptomycin (Life Technologies). Cells were incubated at 37 °C with 5% CO2 humidified atmosphere. As a glioma cell line, C6 cells are highly susceptible to phenotypic drift, which can lead to varying expression levels of receptors and growth factors of interest. For such reason, all data presented here show a single representative experiment of many independent replicate trials.
WST-1 Cell Viability Assay: After compound treatment, conditioned media were removed and replaced with 75 μL of warm low-serum media. To each well was added 5 μL of WST-1 Cell Proliferation Reagent (Roche Applied Science, Penzberg, Germany), and the cells were incubated at 37 °C for no more than 1 h. Plates were briefly shaken prior to reading the absorbance at 450 nm. Treatments were compared to vehicle control.
(In general: Formazan colour is commonly taken as a measure of viable cells.)

The test system of data set [2] is C6 glioma cells. Nature of the data set: GDNF release by C6 cells (sandwich ELISA of culture medium). It is filed as cell-based, Rat. Particulars: 48 h; for GDNF in the medium relative to negative control (GDNF/DMSO): initial screening, confluent C6 cells, 10 μM; for EC50: Rattus norvegicus, C6 glioma, read-out: EC50 of GDNF release; for maximum GDNF release relative to vehicle: dose-response assay, maximum at 10 µM. As for the experimental part:
as §1
GDNF release experiments: Into a 96-well plate were added C6 cells at a density of 25,300 cells/well in full growth medium (see above). Cells were allowed to adhere for 24 h at 37 °C. Cells were then serum-starved with media containing 0.5% FBS (low serum) for an additional 24 h. Low-serum media was refreshed prior to starting the experiment. Compounds were added in 50 μL of low-serum media to obtain a final volume of 200 μL/well. Treatments were performed in quadruplicate. […] Experiments were terminated by removing the conditioned media from each well and storing them at −80 °C until analyzed. GDNF was detected using a standard sandwich-style ELISA kit purchased from Promega Corporation (Madison, WI, USA) following the manufacturer’s instructions. Briefly, monoclonal anti-GDNF antibodies were captured onto a 96-well Nunc Immulon Immunoassay plate at a dilution of 1:1000 in carbonate coating buffer (25 mM sodium bicarbonate, 25 mM sodium carbonate, pH 8.2) overnight at 4 °C. After removing the monoclonal antibody, wells were blocked with 1× block and sample buffer for 1 h at RT (200 μL/well). A GDNF standard curve was created by serially diluting the recombinant human GDNF standard in 1× block and sample buffer to a concentration range of 0−1000 pg mL^−1. To each sample well was added 100 μL of conditioned media from above and the standard curve (in duplicate), and plates were incubated for 6 h with shaking at RT. After washing five times with TBST (150 mM sodium chloride, 10 mM Tris·HCl, 10 mM Tris base, 0.05% Tween 20, pH 7.6), wells were incubated with antihuman polyclonal GDNF antibodies (1:500) in 1× block and sample buffer overnight at 4 °C. Following an additional five washes with TBST, wells were incubated with antichicken IgY-HRP conjugate antibody (1:250) for 2 h with light shaking. After a final five washes, TMB One (100 μL/well) was added to each well and allowed to develop in the absence of light until there were clear differences in color between the highest and lowest concentrations of the standard curve. Wells were then quenched with 1 M HCl (100 μL/well), and the plates were read at an absorbance wavelength of 450 nm using a BioTek Synergy H1 plate reader.

The test system of data set [3] is bloodstream Trypanosoma brucei brucei. The data set can be described thus: Bioluminescent viability assay on bloodstream T. b. brucei (LUC cell line). It is filed as cell-based. Particulars: 24 h; for viability at 10 µM: read-out: Viability at 10 µM (%), bloodstream T. b. brucei, 10 µM, 24 h. As for the experimental part: The anti-trypanosomal activity of compounds was evaluated against the bioluminescent cell line of the bloodstream stage of Trypanosoma brucei brucei (called LUC cell line) as previously described. Briefly, to a 96-well culture plate containing 2.2 μL/well DMSO (negative control) or compounds dissolved in DMSO (1% final concentration), 220 μL/well of a suspension of 1 × 10^5 parasites/mL was added. The plates were incubated at 37 °C and 5% CO2 for 24 h. Next, each well was transferred to a 96-well black plate and 20 μL of a solution containing D-Luciferin (1.5 mg/mL in PBS glucose 1% w/v) and Triton X-100 (0.05% vol/vol) was added. Bioluminescence signal was measured in a LUMIstar OPTIMA Microplate luminometer using the following settings: 10 s shaking, 5 s/well acquisition, 0.2 s measurement delay, maximum gain, and 37 °C. For the bioluminescence assay, parasite viability was calculated according to the following formula: Viability (%) = (BLcpd—BLblank)/ (Blneg—BLblank) × 100, where BL refers to the mean of bioluminescence signal corresponding to the tested compound (cpd), the blank (blank, complete media containing 1% v/v DMSO), or the negative control (neg, parasites treated with 1% v/v DMSO). EC50 values were determined from concentration-response curves fitted to a four-parameter sigmoid equation using the GraphPad Prism software (version 6.0). All errors are expressed as one SD.

In data set [4] the test system is C6 glioma cells. The data set can be described thus: LDH cytotoxicity (cell lysis) assay on C6 cells. It is filed as cell-based. As to conditions: 48 h, dose-response 0.03 to 60 µM. As for the experimental part:
as §1
LDH Cytotoxicity Assay: The lactate dehydrogenase cytotoxicity assay (Promega) was performed following the manufacturer’s instructions. Briefly, following compound treatment, conditioned media were removed, and untreated wells were washed twice with phosphate buffered saline. To untreated wells was added 40 μL of low-serum media supplemented with lysis buffer provided in the kit (1:10), protease inhibitor cocktail (1:100), and phosphatase inhibitor cocktail 2 (1:100). Cells were lysed at 37 °C for 1 h. […] The wells were quenched with 50 μL of stop solution, and the plates were read at an absorbance wavelength of 490 nm.

Data set [5] concerns bloodstream Trypanosoma brucei brucei. As to conditions: read-out: EC50 (µM) against bloodstream T. b. brucei, same cell line and assay conditions, ref Benítez et al. 2020, cited from earlier work.
Setting [6] is: read-out: EC50 (µM) against bloodstream T. b. brucei, mean SD (n = 3).
The mark [7] stands for this setting: mean SD (n = 3), read-out: EC50 (µM) against bloodstream T. b. brucei.
Where [8] appears, read: Trypanosoma brucei, mean SD (n = 3), read-out: EC50 (µM) against bloodstream T. b. brucei.
The mark [9] stands for this setting: Trypanosoma brucei, read-out: EC50 (µM) against bloodstream T. b. brucei, 24 h, mean SD (n = 3).

The viability is the share of living cells, or the viability signal relative to a control. For orientation: EC50 means the concentration at which the effect is half-maximal. As for `COC(=O)C1C2C=CC(C)(C3OC(C)(C)OC23)N1CCc1c[nH]c2ccccc12` [Compound 6, (1S, 3R, 4S, 5R, 6S)-Methyl N-(2-(3-indolyl)ethyl)-1-methyl-5,6-isopropylidendioxy-2-azabicycle[2.2.2]-7-octenen-3-carboxylate], in the data set on C6 glioma cells [1] (48 h, dose-response 0.03 to 60 µM), the “concentrations at which cell viability is impaired (WST-1)” value is at least 10 µM. For the same compound, the “GDNF in the medium relative to negative control (GDNF/DMSO)” value with C6 glioma cells [2] is “up to 6 times”. The viability at 10 µM in data set [3] (Trypanosoma brucei) worked out at 24 ± 6%. Besides, the EC50 in data set [3] (setting [6]) is 7.9 µM and 7.96 µM. Moreover, the “concentrations with significant cell lysis / cell death (LDH)” value in the data set on C6 glioma cells [4] was 60 µM.

On to `COC(=O)C1C2C=CC(C)(C3OC(C)(C)OC23)N1CCc1c[nH]c2ccccc12` [Compound 7, (1S, 3S, 4S, 5S, 6R)-Methyl N-(2-(3-indolyl)ethyl)-1-methyl-5,6-isopropylidendioxy-2-azabicycle[2.2.2]-7-octenen-3-carboxylate], for which the concentration giving a half-maximal response (EC50) came out at 31.5 ± 1.18 µM in data set [3] (setting [7]) and 31.5 µM in data set [3] (setting [8]). In data set [3] (bloodstream T. b. brucei, 10 µM), the “Viability at 10 µM (%)” value was 42 ± 14%.

Turning to `CC(C)C(C)(C)[Si](C)(C)OCC1NC2(C)C=CC1C1OC(C)(C)OC12` [Compound 10exo, (1S, 3R, 4S, 5R, 6S)-1-Methyl-3-(dimethyl(1,1,2-trimethylpropyl)silyloxy)methyl-5,6-isopropylidendioxy-2-azabicycle[2.2.2]-7-octene], the viability at 10 µM in data set [3] (Trypanosoma brucei) was determined as 64 ± 2%.

Turning to `CC(C)C(C)(C)[Si](C)(C)OCC1C2C=CC(C)(C3OC(C)(C)OC23)N1CCc1c[nH]c2ccccc12` [Compound 11, (1S, 3R, 4S, 5S, 6R)-N-(2-(3-indolyl)ethyl)-1-methyl-3-(dimethyl(1,1,2-trimethylpropyl)silyloxy)methyl-5,6-isopropylidendioxy-2-azabicycle[2.2.2]-7-octene], the IC50 with C6 glioma cells [1] is 17.7 µM. Also, the EC50 in the data set with C6 glioma cells [2] (dose-response 0.03 to 60 µM) was 3.46 µM; in data set [3] (setting [7]), 7.95 ± 0.34 µM; in data set [3] (setting [8]), 7.9 µM. In addition, in the data set on C6 glioma cells [2], the “maximum GDNF release relative to vehicle” value was determined as 9 times. Besides, the “GDNF in the medium relative to negative control (GDNF/DMSO)” value in the data set with C6 glioma cells [2] is reported as at most 15 times. Also, the viability at 10 µM in data set [3] (Trypanosoma brucei) came out at 37 ± 6%.

With `CC1(C)OC2C3C=CC(C)(C2O1)N(CCc1c[nH]c2ccccc12)C3CO` [Compound 13, (1S, 3R, 4S, 5S, 6R)-N-(2-(3-indolyl)ethyl)-1-methyl-3-hydroxymethyl-5,6-isopropylidendioxy-2-azabicycle[2.2.2]-7-octene], in data set [3] (Trypanosoma brucei), the viability at 10 µM turned out to be 88%.

For the compound `CC1(C)OC2C3C=CC(C)(C2O1)N(CCc1c[nH]c2ccccc12)C3COCc1ccccc1` [Compound 14, (1S, 3R, 4S, 5S, 6R)-N-(2-(3-indolyl)ethyl)-1-methyl-3-benzyloximethyl-5,6-isopropylidendioxy-2-azabicycle[2.2.2]-7-octene], in the data set on C6 glioma cells [1] (48 h, dose-response), the “lowest concentration with impairment in cell viability (WST-1)” value is at least 300 nM. Besides, in the data set with C6 glioma cells [2], the EC50 came out at 20.1 µM, the “maximum GDNF release relative to vehicle” value stood at 23 times and the “GDNF in the medium relative to negative control (GDNF/DMSO)” value is at most 7 times. The EC50 in data set [3] (setting [9]) came to 1.3 µM. For the same compound, the viability at 10 µM in data set [3] (Trypanosoma brucei) is 22 ± 12%. In addition, the EC50 in data set [3] (setting [6]) came to 1.27 ± 0.26 µM.

In the case of `CC1(C)OC2C3C=CC(C)(C2O1)N(CCc1c[nH]c2ccccc12)C3COC(=O)Cc1c[nH]c2ccccc12` [Compound 15, (1S, 3R, 4S, 5S, 6R)-N-(2-(3-indolyl)ethyl)-1-methyl-3-(2-(1H-3-indolyl)acetyloxy)methyl-5,6-isopropylidendioxy-2-azabicycle[2.2.2]-7-octene], in the data set on C6 glioma cells [1], the IC50 was determined as 3.5 µM. Moreover, the EC50 with C6 glioma cells [2] (dose-response 0.03 to 60 µM) worked out at 6.79 µM; in data set [3] (setting [7]) it was 3.47 ± 0.02 µM; in data set [3] (setting [8]), 3.5 µM. In addition, in the data set on C6 glioma cells [2], the “maximum GDNF release relative to vehicle” value is reported as 70 times. Further, in the data set with C6 glioma cells [2], the “GDNF in the medium relative to negative control (GDNF/DMSO)” value is reported as “up to 60 times”. Also, the viability at 10 µM in data set [3] (Trypanosoma brucei) came to 0%.

Take `CC1CS(=O)(=O)CCN1/N=C/c1ccc([N+](=O)[O-])o1` (stereo not drawn) [Nifurtimox]: the half-maximal effective concentration (EC50) in data set [5] is 5.3 µM; in data set [5] (listed as Nfx), 5.31 ± 0.44 µM.

Take `CCC1CC2C=CC1N(CCc1c[nH]c3ccc(F)cc13)C2` (stereo not drawn) [XL-008, reference compound]: the “GDNF in the medium relative to negative control (GDNF/DMSO)” value in the data set with C6 glioma cells [2] is ~ 57 times. Moreover, the EC50 in data set [3] (setting [9]) is 20 µM; in data set [3] (setting [6]), 19.5 ± 0.3 µM.
